Patent US11040976B2, “Substrate selective inhibitors of insulin-degrading enzyme (IDE) and uses thereof” (President and Fellows of Harvard College, priority 2015, dated 2021)

What follows are molecules tested against T1, recombinant human IDE42-1019 (Homo sapiens, UniProt P14735) (assay: Protease assay with fluorogenic peptide substrate Mca-[…](Dnp)-OH). Details: fluorogenic peptide Mca-RPPGFSAFK(Dnp)-OH; apparent IC50 for compounds with submaximal inhibition; read-out: IC50 (μM) Proteolysis.
T1 construct: recombinant human IDE42-1019 (R&D Systems); purchased R&D Systems
T1 sequence (P14735 42-1019): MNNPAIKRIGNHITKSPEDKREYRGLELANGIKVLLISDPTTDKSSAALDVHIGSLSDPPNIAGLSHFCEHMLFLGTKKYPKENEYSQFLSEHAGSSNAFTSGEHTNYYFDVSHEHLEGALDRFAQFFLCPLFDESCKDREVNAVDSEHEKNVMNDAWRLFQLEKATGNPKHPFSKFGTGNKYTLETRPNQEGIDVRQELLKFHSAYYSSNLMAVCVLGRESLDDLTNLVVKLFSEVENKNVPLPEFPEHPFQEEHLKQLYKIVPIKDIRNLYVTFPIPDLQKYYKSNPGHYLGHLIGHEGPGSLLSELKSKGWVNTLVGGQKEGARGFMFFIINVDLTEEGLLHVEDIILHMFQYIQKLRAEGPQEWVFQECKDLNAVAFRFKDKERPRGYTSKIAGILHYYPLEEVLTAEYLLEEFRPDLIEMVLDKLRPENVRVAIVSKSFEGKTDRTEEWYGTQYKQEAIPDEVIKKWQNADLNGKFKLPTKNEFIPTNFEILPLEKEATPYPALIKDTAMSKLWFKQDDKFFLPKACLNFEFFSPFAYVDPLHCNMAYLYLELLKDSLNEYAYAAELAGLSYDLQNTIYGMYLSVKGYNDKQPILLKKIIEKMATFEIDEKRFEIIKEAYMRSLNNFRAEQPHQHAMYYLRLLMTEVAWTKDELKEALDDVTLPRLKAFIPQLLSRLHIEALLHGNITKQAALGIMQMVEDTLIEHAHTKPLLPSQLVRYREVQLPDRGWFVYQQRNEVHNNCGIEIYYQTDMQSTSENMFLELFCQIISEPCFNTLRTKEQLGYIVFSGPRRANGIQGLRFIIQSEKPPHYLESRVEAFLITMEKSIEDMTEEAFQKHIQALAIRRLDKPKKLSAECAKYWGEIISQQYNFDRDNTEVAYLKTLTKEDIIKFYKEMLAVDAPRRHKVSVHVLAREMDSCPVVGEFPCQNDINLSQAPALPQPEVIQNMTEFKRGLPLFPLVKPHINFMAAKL
Type: biochemical

SMILES	IC50 [µM]
O=C(CC1CC1)N1CC(=O)N2[C@H](C1)[C@H](c1ccc(C#Cc3ccccc3)cc1)[C@@H]2CO [compound 187]	> 20
Cc1ccccc1-c1ccc([C@H]2[C@@H](CO)N3CCCCN(S(=O)(=O)Cc4ccccc4)C[C@@H]23)cc1 [compound 236]	> 200
COc1cccc(-c2ccc([C@@H]3[C@@H](CO)N4CCCCN(CC5CCOCC5)C[C@@H]34)cc2)c1 [compound 644]	> 100

Other lines, results leading:

IC50 [µM]	SMILES
7	OC[C@H]1[C@@H](c2ccc(C#Cc3ccccc3F)cc2)[C@@H]2CN(Cc3cncnc3)CCCCN12 [compound 683]
> 7.5	O=C(NC1CCCC1)N1CCCCN2[C@@H](CO)[C@H](c3ccc(/C=C/c4ccccc4)cc3)[C@@H]2C1 [compound 900]
2.5	Cc1ccccc1-c1ccc([C@@H]2[C@H](CO)N3C(=O)CN(C(=O)NC4CCCC4)C[C@@H]23)cc1 [compound 1576]

Same assay, conditions: fluorogenic peptide Mca-RPPGFSAFK(Dnp)-OH; plateau at high inhibitor concentration; read-out: Imax (%) Proteolysis (inhibition maximum)

SMILES	Emax [%]
COc1ccccc1-c1ccc([C@H]2[C@@H](CO)N(C(=O)NC(C)C)[C@H]2C#N)cc1 [D2]	100
Cc1ccccc1-c1ccc([C@@H]2[C@H]3CN(C(=O)c4ccncc4)CC(=O)N3[C@H]2CO)cc1 [compound 102]	80
Cc1ccccc1-c1ccc([C@H]2[C@@H](CO)N3CCCCN(C(=O)c4cccnc4)C[C@H]23)cc1 [compound 106]	80
Cc1ccccc1-c1ccc([C@H]2[C@H](CO)N3C(=O)CN(C(=O)c4ccc(F)cc4)C[C@@H]23)cc1 [compound 124]	70
COc1ccccc1C#Cc1ccc([C@H]2[C@H](CO)N3CCCCN(C(=O)C4CCC4)C[C@@H]23)cc1 [compound 180]	80
Cc1ccccc1-c1ccc([C@@H]2[C@@H](CO)N3CCCCN(S(=O)(=O)c4ccc(F)cc4)C[C@@H]23)cc1 [compound 217]	40
Cc1ccccc1-c1ccc([C@H]2[C@@H](CO)N3CCCCN(C(=O)Nc4ccc(F)cc4)C[C@@H]23)cc1 [compound 226]	30

Other lines, results leading:

Emax [%]	SMILES
80	OC[C@H]1[C@@H](c2ccc(C#Cc3ccccc3F)cc2)[C@@H]2CN(Cc3cncnc3)CCCCN12 [compound 683]
60	Cc1ccccc1-c1ccc([C@@H]2[C@H](CO)N3C(=O)CN(C(=O)NC4CCCC4)C[C@@H]23)cc1 [compound 1576]

What follows are molecules tested against T2, Human N-His6-IDE42-1019 (E. coli expressed) (Homo sapiens, UniProt P14735) (assay: Fluorescence anisotropy high-throughput screening assay (displacement of probe FL-6b)). Details: final compound concentration 20 μM (6bK control 1 μM); values without asterisk.
T2 construct: Human N-His6-IDE42-1019 (E. coli expressed); made in house; host or cells: E. coli (Rosetta 2 (DE3) pLysS, plasmid pTrcHis-A)
T2 sequence (P14735 42-1019): T1 sequence (P14735 42-1019)
Type: binding
Description: The fluorescence anisotropy screening method and probe FL-6b are described in PCT application PCT/US2014/064322, incorporated herein by reference.
Human N-His6-IDE42-1019 (E. coli expressed) was mixed with fluorescein-labeled macrocycle FL-6b:
[drawing 802] in 50 mM Tris buffer pH 8.0, with 1 M NaCl, at 25° C. Optimum signal was obtained using a mixture of […] probe FL-6b and 0.5 μM IDE. The “diversity-oriented (DOS) synthesis informer set” compound plates were pinned onto 384-well plates containing the enzyme-probe mixture (50 μL/well). The azetidine screen was pre-printed on 384-well plates and the enzyme-probe mixture was added (50 μL/well). The final compound concentration was 20 μM. IDE inhibitor 6bK was used as a positive control at a final concentration of 1 μM. After 30 minutes of equilibration, the increase in fluorescence anisotropy was recorded using an EnVision spectrophotometer (excitation 492 nm, emission 523 nm). The fluorescence anisotropy was independently measured twice for each screened compound. The Z-scores for each pair of measurements are plotted in FIG. 1A (DOS informer set) and FIG. 1B (azetidines), and average Z-scores are listed for exemplary compounds in Table E1.
Z-scores were calculated based on the raw anisotropy measured for each well according to Eq. 1, wherein x is the raw anisotropy value of the well, μ is the mean of the anisotropy of the negative control wells (DMSO) for the plate, and σ is the standard deviation in anisotropy of the negative control wells (DMSO) for the plate.

Average Z-score (Fluorescence anisotropy)	SMILES
−16.97	COc1ccccc1-c1ccc([C@@H]2[C@@H](C#N)N(C(=O)C3CC3)[C@@H]2CO)cc1 [D1]
−16.33	COc1ccccc1-c1ccc([C@H]2[C@@H](CO)N(C(=O)NC(C)C)[C@H]2C#N)cc1 [D2]
−10.49	COc1ccccc1-c1ccc([C@H]2[C@H](C#N)N[C@@H]2CO)cc1 [D7]
−4.11	COc1cccc(C#Cc2ccc([C@@H]3[C@H](CO)N4C(=O)CN(C(=O)Cc5cccnc5)C[C@@H]34)cc2)c1 [compound 089]
−16.48	Cc1ccccc1-c1ccc([C@H]2[C@@H](CO)N3CCCCN(C(=O)c4cccnc4)C[C@H]23)cc1 [compound 106]
−16.49	Cc1ccccc1-c1ccc([C@H]2[C@H](CO)N3C(=O)CN(C(=O)c4ccc(F)cc4)C[C@@H]23)cc1 [compound 124]
−15.91	O=C(CC1CC1)N1CC(=O)N2[C@H](C1)[C@H](c1ccc(C#Cc3ccccc3)cc1)[C@@H]2CO [compound 187]
−17.51	Cc1ccccc1-c1ccc([C@@H]2[C@@H](CO)N3CCCCN(S(=O)(=O)c4ccc(F)cc4)C[C@@H]23)cc1 [compound 217]
−1.67	Cc1ccccc1-c1ccc([C@H]2[C@@H](CO)N3CCCCN(C(=O)Nc4ccc(F)cc4)C[C@@H]23)cc1 [compound 226]
−1.64	Cc1ccccc1-c1ccc([C@H]2[C@@H](CO)N3CCCCN(S(=O)(=O)Cc4ccccc4)C[C@@H]23)cc1 [compound 236]
−16.08	CCCNC(=O)N1CC(=O)N2[C@H](CO)[C@H](c3ccc(-c4cccc(C)c4)cc3)[C@@H]2C1 [compound 782]

SMILES	Average Z-score (Fluorescence anisotropy)
Cc1ccccc1-c1ccc(C2C3CN(Cc4cccnc4)CC2N3)cc1 (stereo not shown) [C5]	−13.95

Same assay, conditions: values marked *: from the screen using the diversity-oriented synthesis (DOS) informer set of plates; 20 μM

SMILES	Average Z-score (Fluorescence anisotropy)
Cc1ccccc1-c1ccc([C@@H]2[C@H]3CN(C(=O)c4ccncc4)CC(=O)N3[C@H]2CO)cc1 [compound 102]	−13.56*
COc1ccccc1C#Cc1ccc([C@H]2[C@H](CO)N3CCCCN(C(=O)C4CCC4)C[C@@H]23)cc1 [compound 180]	−12.26*

The next lines start with the values.

Average Z-score (Fluorescence anisotropy)	SMILES
−27.23*	Cc1cccc(-c2ccc([C@@H]3[C@@H](CO)N4CCCCN(S(=O)(=O)c5ccccc5F)C[C@@H]34)cc2)c1 [compound 688]
−10.53*	COc1ccccc1C#Cc1ccc([C@@H]2[C@H](CO)N3CCCCN(C(=O)C4CCC4)C[C@@H]23)cc1 [compound 930]
